Laboratory results from US9376425B2, “Heterocyclic compounds as MDM2 inhibitors for the treatment of cancer” (AMGEN INC., priority 2011, dated 2016).

These compounds were tested against T1, human MDM2 (GST-hMDM2 1-188), interaction with biotinylated-p53 (1-83) (Homo sapiens, UniProt Q00987) (assay: improved HTRF assay (HTRF2 assay), inhibition of HDM2-p53 interaction). Settings: 0.2 nM GST-hMDM2, 0.5 nM biotinylated-p53, 100 mM KF.
T1 construct: Amino acid residues 1-188 of human MDM2 were expressed; made in house; host or cells: Escherichia coli
Assay type: binding
Outline: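 Time-resolved fluorescence (HTRF) read after >4 h equilibration with SA-XLent/anti-GST cryptate/KF detection reagents. Reaction: compound plus GST-hMDM2 for 20 min at room temperature, then E. coli-expressed biotinylated p53 residues 1-83 for 60 min, 2% DMSO final. Inhibition expressed versus nutlin-3.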

T1 sequence (Q00987 1-188): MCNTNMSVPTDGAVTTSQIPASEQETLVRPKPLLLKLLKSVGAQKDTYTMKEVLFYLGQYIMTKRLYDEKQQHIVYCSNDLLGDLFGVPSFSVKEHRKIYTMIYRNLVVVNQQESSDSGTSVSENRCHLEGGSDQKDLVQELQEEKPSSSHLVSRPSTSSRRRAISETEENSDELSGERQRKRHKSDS

| SMILES | IC50 [nM] |
| --- | --- |
| O=C(C[C@H]1O[C@H](c2cccc(Cl)c2)[C@@H](c2ccc(Cl)cc2)N([C@H](CN(c2ccccc2F)S(=O)(=O)C2CC2)C2CC2)C1=O)Nc1ccccn1 (single isomer, unassigned) [Example 369, 2-((2R,5R,6R)-6-(3-Chlorophenyl)-5-(4-chlorophenyl)-4-((S)-1-cyclopropyl-2-(N-(2-fluorophenyl)cyclopropanesulfonamido)ethyl)-3-oxomorpholin-2-yl)-N-(pyridin-2-yl)acetamide or 2-((2S,5R,6R)-6-(3-chlorophenyl)-5-(4-chlorophenyl)-4-((S)-1-cyclopropyl-2-(N-(2-fluorophenyl)cyclopropanesulfonamido)ethyl)-3-oxomorpholin-2-yl)-N-(pyridin-2-yl)acetamide] | 8 |
| CC(C)(C)S(=O)(=O)C[C@H](C1CC1)N1C(=O)[C@@H](CCO)O[C@H](c2cccc(Cl)c2)[C@H]1c1ccc(Cl)cc1 (single isomer, unassigned) [Example 370, (2R,5R,6R)-4-((S)-2-(tert-Butylsulfonyl)-1-cyclopropylethyl)-6-(3-chlorophenyl)-5-(4-chlorophenyl)-2-(2-hydroxyethyl)morpholin-3-one or (2S,5R,6R)-4-((S)-2-(tert-butylsulfonyl)-1-cyclopropylethyl)-6-(3-chlorophenyl)-5-(4-chlorophenyl)-2-(2-hydroxyethyl)morpholin-3-one] | 28 |
| CC[C@@H](CS(=O)(=O)C(C)(C)C)N1C(=O)[C@@H](C[C@@H](O)CO)O[C@H](c2cccc(Cl)c2)[C@H]1c1ccc(Cl)cc1 (single isomer, unassigned) [Example 371] | 15 |
| CC[C@@H](CS(=O)(=O)C(C)(C)C)N1C(=O)[C@@H](C[C@@H](O)CO)O[C@H](c2cccc(Cl)c2)[C@H]1c1ccc(Cl)cc1 (single isomer, unassigned) [Example 372] | 67 |
| CC[C@@H](CS(=O)(=O)C(C)(C)C)N1C(=O)[C@@H](C[C@@H](O)CO)O[C@H](c2cccc(Cl)c2)[C@H]1c1ccc(Cl)cc1 (single isomer, unassigned) [Example 373] | 45 |
| CC[C@@H](CS(=O)(=O)C(C)(C)C)N1C(=O)[C@@H](C[C@@H](O)CO)O[C@H](c2cccc(Cl)c2)[C@H]1c1ccc(Cl)cc1 (single isomer, unassigned) [Example 374] | 19 |
| CC[C@@H](CS(=O)(=O)C(C)(C)C)N1C(=O)[C@@H](CNC(=O)N(CC)CC)O[C@H](c2cccc(Cl)c2)[C@H]1c1ccc(Cl)cc1 (single isomer, unassigned) [Example 375, 3-(((2R,5R,6R)-4-((S)-1-(tert-Butylsulfonyl)butan-2-yl)-6-(3-chlorophenyl)-5-(4-chlorophenyl)-3-oxomorpholin-2-yl)methyl)-1,1-diethylurea or 3-(((2S,5R,6R)-4-((S)-1-(tert-butylsulfonyl)butan-2-yl)-6-(3-chlorophenyl)-5-(4-chlorophenyl)-3-oxomorpholin-2-yl)methyl)-1,1-diethylurea] | 55 |
| CC[C@@H](CS(=O)(=O)C(C)(C)C)N1C(=O)[C@@H](CNC(=O)N(CC)CC)O[C@H](c2cccc(Cl)c2)[C@H]1c1ccc(Cl)cc1 (single isomer, unassigned) [Example 376, 3-(((2R,5R,6R)-4-((S)-1-(tert-Butylsulfonyl)butan-2-yl)-6-(3-chlorophenyl)-5-(4-chlorophenyl)-3-oxomorpholin-2-yl)methyl)-1,1-diethylurea or 3-(((2S,5R,6R)-4-((S)-1-(tert-butylsulfonyl)butan-2-yl)-6-(3-chlorophenyl)-5-(4-chlorophenyl)-3-oxomorpholin-2-yl)methyl)-1,1-diethylurea] | 48 |
| CC[C@@H](CS(=O)(=O)C(C)(C)C)N1C(=O)[C@@H](CNC(C)=O)O[C@H](c2cccc(Cl)c2)[C@H]1c1ccc(Cl)cc1 (single isomer, unassigned) [Example 379, N-(((2R,5R,6R)-4-((S)-1-(tert-Butylsulfonyl)butan-2-yl)-6-(3-chlorophenyl)-5-(4-chlorophenyl)-3-oxomorpholin-2-yl)methyl)acetamide or N-(42S,5R,6R)-4-((S)-1-(tert-butylsulfonyl)butan-2-yl)-6-(3-chlorophenyl)-5-(4-chlorophenyl)-3-oxomorpholin-2-yl)methyl)acetamide] | 82 |
| CC[C@@H](CS(=O)(=O)C(C)(C)C)N1C(=O)[C@@H](CNC(C)=O)O[C@H](c2cccc(Cl)c2)[C@H]1c1ccc(Cl)cc1 (single isomer, unassigned) [Example 380, N-(((2R,5R,6R)-4-((S)-1-(tert-Butylsulfonyl)butan-2-yl)-6-(3-chlorophenyl)-5-(4-chlorophenyl)-3-oxomorpholin-2-yl)methyl)acetamide or N-(((2S,5R,6R)-4-((S)-1-(tert-butylsulfonyl)butan-2-yl)-6-(3-chlorophenyl)-5-(4-chlorophenyl)-3-oxomorpholin-2-yl)methyl)acetamide] | 48 |
| CC(C)(C)S(=O)(=O)C[C@H](C1CC1)N1C(=O)[C@@H](Cc2cnn[nH]2)O[C@H](c2cccc(Cl)c2)[C@H]1c1ccc(Cl)cc1 (single isomer, unassigned) [Example 385, (2R,5R,6R)-2-((1H-1,2,3-Triazol-5-yl)methyl)-4-((S)-2-(tert-butylsulfonyl)-1-cyclopropylethyl)-6-(3-chlorophenyl)-5-(4-chlorophenyl)morpholin-3-one or (2S,5R,6R)-2-((1H-1,2,3-triazol-5-yl)methyl)-4-((S)-2-(tert-butylsulfonyl)-1-cyclopropylethyl)-6-(3-chlorophenyl)-5-(4-chlorophenyl)morpholin-3-one] | 4 |
| CC(C)(C)S(=O)(=O)C[C@H](C1CC1)N1C(=O)[C@@H](Cc2cnn[nH]2)O[C@H](c2cccc(Cl)c2)[C@H]1c1ccc(Cl)cc1 (single isomer, unassigned) [Example 386, (2R,5R,6R)-2-((1H-1,2,3-Triazol-5-yl)methyl)-4-((S)-2-(tert-butylsulfonyl)-1-cyclopropylethyl)-6-(3-chlorophenyl)-5-(4-chlorophenyl)morpholin-3-one or (2S,5R,6R)-2-((1H-1,2,3-triazol-5-yl)methyl)-4-((S)-2-(tert-butylsulfonyl)-1-cyclopropylethyl)-6-(3-chlorophenyl)-5-(4-chlorophenyl)morpholin-3-one] | 13 |
| CC(C)(C)S(=O)(=O)C[C@H](C1CC1)N1C(=O)[C@@H](CC#N)O[C@H](c2cccc(Cl)c2)[C@H]1c1ccc(Cl)cc1 (single isomer, unassigned) [Example 387, 2-((2R,5R,6R)-4-((S)-2-(tert-Butylsulfonyl)-1-cyclopropylethyl)-6-(3-chlorophenyl)-5-(4-chlorophenyl)-3-oxomorpholin-2-yl)acetonitrile or 2-((2S,5R,6R)-4-((S)-2-(tert-butylsulfonyl)-1-cyclopropylethyl)-6-(3-chlorophenyl)-5-(4-chlorophenyl)-3-oxomorpholin-2-yl)acetonitrile] | 62 |
| CC(C)(C)S(=O)(=O)C[C@H](C1CC1)N1C(=O)[C@@H](CC#N)O[C@H](c2cccc(Cl)c2)[C@H]1c1ccc(Cl)cc1 (single isomer, unassigned) [Example 388, 2-((2R,5R,6R)-4-((S)-2-(tert-Butylsulfonyl)-1-cyclopropylethyl)-6-(3-chlorophenyl)-5-(4-chlorophenyl)-3-oxomorpholin-2-yl)acetonitrile or 2-((2S,5R,6R)-4-((S)-2-(tert-butylsulfonyl)-1-cyclopropylethyl)-6-(3-chlorophenyl)-5-(4-chlorophenyl)-3-oxomorpholin-2-yl)acetonitrile] | 28 |
| CC(C)(C)S(=O)(=O)C[C@H](C1CC1)N1C(=O)[C@@H](Cc2ncn[nH]2)O[C@H](c2cccc(Cl)c2)[C@H]1c1ccc(Cl)cc1 (single isomer, unassigned) [Example 389, (2R,5R,6R)-2-((1H-1,2,4-Triazol-5-yl)methyl)-4-((S)-2-(tert-butylsulfonyl)-1-cyclopropylethyl)-6-(3-chlorophenyl)-5-(4-chlorophenyl)morpholin-3-one or (2S,5R,6R)-2-((1H-1,2,4-triazol-5-yl)methyl)-4-((S)-2-(tert-butylsulfonyl)-1-cyclopropylethyl)-6-(3-chlorophenyl)-5-(4-chlorophenyl)morpholin-3-one] | 19 |
| CC(C)(C)S(=O)(=O)C[C@H](C1CC1)N1C(=O)[C@@H](Cc2ncn[nH]2)O[C@H](c2cccc(Cl)c2)[C@H]1c1ccc(Cl)cc1 (single isomer, unassigned) [Example 390, (2R,5R,6R)-2-((1H-1,2,4-Triazol-5-yl)methyl)-4-((S)-2-(tert-butylsulfonyl)-1-cyclopropylethyl)-6-(3-chlorophenyl)-5-(4-chlorophenyl)morpholin-3-one or (2S,5R,6R)-2-((1H-1,2,4-triazol-5-yl)methyl)-4-((S)-2-(tert-butylsulfonyl)-1-cyclopropylethyl)-6-(3-chlorophenyl)-5-(4-chlorophenyl)morpholin-3-one] | 11 |
| Cc1n[nH]c(C[C@H]2O[C@H](c3cccc(Cl)c3)[C@@H](c3ccc(Cl)cc3)N([C@H](CN(c3ccccc3F)S(=O)(=O)C3CC3)C3CC3)C2=O)n1 (single isomer, unassigned) [Example 392, N-((S)-2-((2R,3R,6R)-2-(3-Chlorophenyl)-3-(4-chlorophenyl)-6-((3-methyl-1H-1,2,4-triazol-5-yl)methyl)-5-oxomorpholino)-2-cyclopropylethyl)-N-(2-fluorophenyl)cyclopropanesulfonamide or N-((S)-2-((2S,3R,6R)-2-(3-chlorophenyl)-3-(4-chlorophenyl)-6-((3-methyl-1H-1,2,4-triazol-5-yl)methyl)-5-oxomorpholino)-2-cyclopropylethyl)-N-(2-fluorophenyl)cyclopropanesulfonamide] | < 1 |
